According to patent US11969397B2, “Composition for preventing and treating transplant rejection or transplant rejection diseases, comprising novel compound and calcineurin inhibitor” (THE CATHOLIC UNIVERSITY OF KOREA INDUSTRY-ACADEMIC …, priority 2018, dated 2024):

Tests used:
Foxp3 Treg cells = experiment: Treg activity under Th17 differentiation condition in in vitro allogenic model (mouse cells); assay type: cell-based; conditions: 4 days, SD282 20 and 500 μM, FK506 1 and 5 nM, combination FK506 1, 5 nM + SD282 250 μM
Protocol: (§1) CD4+ T cells derived from a normal recipient (Balb/c, responder) (2×10^5 cells) were injected into each well of a 96-well round bottom plate, in vitro. Thereafter, for syngenic transplantation, normal recipient-derived T cell-removed splenocytes (2×10^5 cells), which had been irradiated with radiation, were added to each of the wells, followed by culturing under mixing. For allogenic transplantation, donor (C57BL/6, stimulator)-derived T cell-removed splenocytes were added to each of the wells, followed by culturing under mixing.
The allogenic models of Example 1-1 were treated with 20 and 500 μM of SD282 alone or 1 and 5 nM of FK506 alone. And, FK506 (1 and 5 nM) and SD282 (250 μM) were treated in combination, respectively. The isolated T cells were cultured for 4 days under the condition of Th17 cell differentiation so as to induce the differentiation to Th17 cells.

[1] = test system: allogenic T cells (normal human PBMCs); experiment: T cell proliferation in normal human PBMCs (MLR, CFSE); assay type: cell-based; parameters: T cell proliferation (FIG. 13a): dose or concentration left out as unconfirmed; conditions: for proliferation of allogenic T cells (FIG. 13b): 4 days, FK506 1 and 5 nM, SD282 alone, combination FK506 1, 5 nM + SD282 250 μM
Protocol: In order to evaluate the T cell proliferations according to the treatment with SD282 alone, FK506 alone, or in combination thereof in normal human PBMCs (peripheral blood mononuclear cells, PBMCs), mixed leukocyte reaction (MLR) and CFSE (carboxyfluorescein succinimidyl ester) staining were performed. An untreated syngenic group and an untreated allogenic group were used as controls. […] And, FK506 (1 and 5 nM) and SD282 (250 μM) were treated in combination, respectively. After the treatments, each group was cultured for 4 days and then alloresponses were evaluated by observing the T cell proliferations of the cultured cells, according to the 3H-thymidine incorporation method or the flow cytometry method.

allogenic T cells = experiment: T cell proliferation in in vitro allogenic transplantation model (mouse cells); assay type: cell-based; conditions: cultured 4 days; for T cell proliferation (3H-thymidine incorporation, FIG. 1): SD282 alone 250 μM or more, FK506 alone 1 and 5 nM, combination FK506 1 and 5 nM + SD282 250 μM; for T cell proliferation (flow cytometry, FIG. 2): SD282 alone, FK506 alone or combination
Protocol: as §1
In order to evaluate T cell proliferations according to the treatment with SD282 alone, FK506 alone or in combination thereof, the untreated syngenic group and the untreated allogenic group of Example 1-1 were used as controls. The allogenic model was treated with 50, 250 and 500 μM of SD282 alone or 1 and 5 nM of FK506 alone. And, FK506 (1 and 5 nM) and SD282 (250 μM) were treated in combination, respectively. After the treatments, each group was cultured for 4 days and then alloresponses were evaluated by observing the T cell proliferations of the cultured cells, according to the 3H-thymidine incorporation method, the CFSE assay method, or the flow cytometry method.
In addition, in order to evaluate the synergistic effect according to the treatment of SD282 and FK506 in combination, the Combination Index (CI) value (drug treatment) was calculated. The CI value was obtained by the following equation. A value of 1 or less means that there is a synergistic effect between the combination of two drugs, and a value of 1 or more means that there is an antagonistic effect between the combination of two drugs.

pathogenic Th17 cells = experiment: Inhibition of pathogenic Th17 cells / IL-17 in in vitro allogenic model (mouse cells); assay type: cell-based; conditions: 4 days, anti-CD3 0.1 μg/ml, SD282 50, 250, 500 μM, FK506 1, 5 nM, combination FK506 1, 5 nM + SD282 250 μM
Protocol: as §1
The T cell response regulates the activity of Th17 (T helper 17 cell)/IL-17 (Interleukin 17) and IL-17 is classified as an inflammatory cytokine. […] We also evaluated inhibitory activity against inflammatory cytokines according to the treatments with SD282 and FK506 alone or in combination. The untreated syngenic group and the untreated allogenic group of Example 1-1 were used as controls. The allogenic models were treated with 50, 250 and 500 μM of SD282 alone or 1 and 5 nM of FK506 alone. And, FK506 (1 and 5 nM) and SD282 (250 μM) were treated in combination, respectively. After the treatments, each group was cultured for 4 days and then stimulated with anti-CD3 (0.1 μg/ml). The inhibitory efficacy against IL-17+CD4+ T cells and IL-17 was evaluated by analyzing the cultured Th17 cells according to the ELISA method; and the proliferation of Fox3+ Treg cells was evaluated through the analysis of Treg cells.

[2] = test system: PBMCs of a liver-transplanted patient; experiment: Microarray / KEGG pathway and gene regulation in PBMCs of a liver-transplanted patient; assay type: cell-based, human; conditions: CD3 stimulation, 48 hours, SD282 250 μM
Protocol: In order to investigate changes in the signal factors related to immune cell modulation according to drug treatments in the peripheral blood cells (PBMCs) of a liver-transplanted patient, the PBMCs were treated with 250 μM of SD282 alone, 5 nM of FK506 alone, and the combination thereof, under the condition of TCR stimulation (under the CD3 stimulation). After culturing for 48 hours, the microarray analyses thereof were carried out by Macrogen, Inc.

IL-17, IFN-γ and TNF-α = experiment: Inflammatory cytokines in normal human PBMCs under allo-response (ELISA); assay type: cell-based; conditions: allogenic, 4 days, compared to the group treated with FK506 alone
Protocol: In order to evaluate the inhibitions against the activities of inflammatory cytokines according to the treatment with SD282 alone, FK506 alone, or in combination thereof in normal human peripheral blood cells (PBMCs), an untreated syngenic group and an untreated allogenic group were used as controls. Allogenic models were treated with 5, 250 and 500 μM of SD282 alone or 1 and 5 nM of FK506 alone. And, 1 and 5 nM of FK506 and 250 μM SD282 were treated in combination, respectively. After the treatments, each group was cultured for 4 days and then the inhibitory effects against IL-17, IFN-γ and TNF-α in the cultured cells was evaluated according to the ELISA method, so as to evaluate alloresponses.

SMILES | proliferation of Treg cells (Foxp3, flow cytometry) (Foxp3 Treg cells) | proliferation of Treg cells (Foxp3, flow cytometry) (Foxp3 Treg cells; listed as Fk506) | proliferation of allogenic T cells (FIG. 13b) [1] | T cell proliferation (3H-thymidine incorporation, FIG. 1) (allogenic T cells) | T cell proliferation (flow cytometry, FIG. 2) (allogenic T cells) | IL-17+CD4+ T cells (%) / proliferation of pathogenic Th17 cells (pathogenic Th17 cells) | activity of the inflammatory cytokine IL-17 (ELISA) (pathogenic Th17 cells) | IL-17+CD4+ T cells (%) / proliferation of pathogenic Th17 cells (pathogenic Th17 cells; listed as Fk506) | activity of the inflammatory cytokine IL-17 (ELISA) (pathogenic Th17 cells; listed as Fk506) | T cell proliferation (FIG. 13a) ([1]; 4 days, or more of SD282 alone, compared to control group) | various pathways increased in a liver-transplanted patient (KEGG) [2] | activity of IFN-γ (ELISA) (IL-17, IFN-γ and TNF-α) | activity of IL-17 (ELISA) (IL-17, IFN-γ and TNF-α) | activity of TNF-α (ELISA) (IL-17, IFN-γ and TNF-α)
C=CC[C@@H]1/C=C(\C)C[C@H](C)C[C@H](OC)[C@H]2O[C@@](O)(C(=O)C(=O)N3CCCC[C@H]3C(=O)O[C@H](/C(C)=C/[C@@H]3CC[C@@H](O)[C@H](OC)C3)[C@H](C)[C@@H](O)CC1=O)[C@H](C)C[C@@H]2OC [FK506, tacrolimus] | did not increase | significantly increased | not effective | not effective | inhibited | did not effectively inhibit | did not effectively inhibit | inhibited | inhibited |  |  |  |  | 
CCN(C(=N)NC(=N)N)c1ccc(F)cc1 [SD282] | significantly increased |  | significantly inhibited | significantly inhibited | inhibited | inhibited | inhibited |  |  | inhibited | inhibited | more significantly inhibited | more significantly inhibited | more significantly inhibited
